This note sets out measurements from US11840525B2, “Use of AURKB small-molecule inhibitors for treatment of non-small cell lung cancer” (Nanjing China-Australia Institute of Translational Medicine …, priority 2016, dated 2023).

For one assay, the system named is HL-60. Kind of assay: Growth inhibition of tumor cells, HL-60. Format: cell-based. As to conditions: Homo sapiens, read-out: IC50 against tumor cells, HL-60. The method, then: (§1) Lung cancer cells A549 were separated into a 96-well plate and respectively added with 10 mM TZ47 stock solution to final concentrations of 0 μM, 0.1 μM, 0.5 μM, 1 μM, 2 μM, 4 μM and 8 μM in respective wells. Then the 96-well plate was incubated at 37° C. for 48 h and the growth of the cells was analyzed by a CCK-8 method. […] It can be seen from Table 1 that TZ47 also plays a desirable role in inhibiting the growth of other cancer cells including colorectal cancer, leukemia, liver cancer, melanoma, breast cancer and ovarian cancer.

Another assay concerns A375. Kind of assay: Growth inhibition of tumor cells, A375. It is filed as cell-based. As to conditions: Homo sapiens, A-375; read-out: IC50 against tumor cells, A375. The procedure:
as §1

For another assay, the system named is MCF-7. The assay is described as follows: Growth inhibition of tumor cells, MCF-7. Particulars: Homo sapiens, MCF7; read-out: IC50 against tumor cells, MCF-7. It is filed as cell-based. The procedure:
as §1

A further assay has as its system CaoV-3. The assay is described as follows: Growth inhibition of tumor cells, CaoV-3. As to conditions: Homo sapiens, read-out: IC50 against tumor cells, CaoV-3. Format: cell-based. The method, then: as §1
For another assay, the target named is GST protein (Schistosoma japonicum, UniProt P08515). The assay is described as follows: Microscale thermophoresis (MST) binding to control GST protein.
Assay [1] concerns H3S10 ph near the E2F2 promoter in A549 cells. The assay is described as follows: ChIP assay of H3S10 ph near the E2F2 promoter. As to conditions: TZ47-treated A549 cells. It is filed as cell-based. The method, then: A549 cells were treated by different concentrations of TZ47, and then total RNAs and total proteins of cells were extracted to detect the expression of gene E2F2. […] To further verify the above results, A549 cells were treated with TZ47 and extracted for chromatin, and the chromatin and an H3S10 ph-specific antibody were then used in the ChIP assay. […] It can be seen from the above tests that TZ47 can inhibit the AURKB activity and further inhibit the level of AURKB histone substrate H3S10 ph on the promoter of gene E2F2, affecting the expression of gene E2F2.
The specific steps were described as follows. • a. Detailed steps and conditions for Western blot assay and real-time quantitative PCR test have been described in the above Examples. • b. Chromatin co-immunoprecipitation (ChIP) • 1) In vivo cross-linking of DNA-protein complex
2×10^6-7 cells were collected by low-speed centrifugation, resuspended in 20 mL of RPMI 1640 medium, added with 550 μL of a 37% formalin solution in a fuming cupboard to a final concentration of 1% and incubated for 10 min. The system was mixed 2-3 times during the incubation. • 2) Termination of cross-linking
The cross-linking system was added with 1.35 mL of 2 M glycine (final concentration: 0.1 M), mixed uniformly and incubated for 10 min. […]
The OD260 value of the supernatant was determined and used to calculate the DNA concentration. […]

The target of another assay is AURKB (Homo sapiens, UniProt Q96GD4). The assay is described as follows: In vitro phosphorylation (kinase activity) assay with Flag-AURKB and histone H3. It is filed as biochemical. On the set-up: made in house; host or cells: 293T cells (transfected with pcDNA-AURKB-Flag). As to conditions: 2 μM of TZ47, Flag-AURKB, histone H3 substrate. The method, then: Thus, it is speculated that the treatment affected the activity of a kinase which was able to phosphorylate the H3S10. The following procedures were conducted to verify whether TZ47 inhibited the activity of AURKB directly. First, prokaryotic expression of AURKB protein and purification were performed and then a microscale thermophoresis (MST) was used to detect the binding between TZ47 and AURKB protein by testing the change of microscale thermophoresis caused by the hydrated layer (generally derived from the change of the structure/conformation of biomolecules) based on the directional movement of particles in a microscopic temperature gradient. […] Flag-tagged AURKB protein was then enriched by M2-flag beads (anti-Flag antibody conjugated) from the lysed liquid of 293T cells and used in the in-vitro kinase activity analysis. It can be seen from FIGS. 6A-6B that the Flag-AURKB protein had kinase activity and can phosphorylate histone H3.
The components were mixed according to the above specifications, and reacted at 30° C. for 30 min. After the reaction was completed, the reaction mixture was subjected to western blot assay.

GST protein, sequence (P08515 whole entry): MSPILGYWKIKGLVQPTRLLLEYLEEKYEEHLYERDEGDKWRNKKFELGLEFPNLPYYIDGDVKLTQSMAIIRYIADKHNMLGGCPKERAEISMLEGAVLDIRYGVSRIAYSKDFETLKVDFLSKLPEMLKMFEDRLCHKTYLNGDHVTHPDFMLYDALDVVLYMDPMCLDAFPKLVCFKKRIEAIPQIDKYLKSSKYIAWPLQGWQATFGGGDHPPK
AURKB, sequence (Q96GD4 1-345 isoform Q96GD4-5): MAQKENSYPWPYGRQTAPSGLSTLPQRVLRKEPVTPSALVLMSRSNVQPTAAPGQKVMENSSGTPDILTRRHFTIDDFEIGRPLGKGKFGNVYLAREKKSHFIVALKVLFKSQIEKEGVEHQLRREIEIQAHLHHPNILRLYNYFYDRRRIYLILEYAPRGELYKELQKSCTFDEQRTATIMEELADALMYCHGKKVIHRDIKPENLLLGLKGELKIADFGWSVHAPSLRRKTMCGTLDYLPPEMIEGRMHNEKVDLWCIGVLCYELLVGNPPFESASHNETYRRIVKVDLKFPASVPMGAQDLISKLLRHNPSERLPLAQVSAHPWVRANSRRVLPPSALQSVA

`c1ccc2c(Cc3[nH]c4ccccc4c3Cc3c[nH]c4ccccc34)c[nH]c2c1` [TZ47]: the IC50 in the assay with HL-60 was 91.6 ± 2.2 nM; in the assay with A375, 1400 ± 110 nM; in the assay with MCF-7, 1870 ± 150 nM; in the assay with CaoV-3, 4470 ± 120 nM. For the same compound, the “binding to control GST protein” value on GST protein was “did not bind”. Also, the “enrichment of histone H3S10 ph near the E2F2 promoter” value in assay [1] was “significantly reduced”. Moreover, on AURKB, the “kinase activity of AURKB” value was “completely inhibited”.
